Reference: ChEMBL document CHEMBL2321784, “Discovery of 5-benzyl-3-phenyl-4,5-dihydroisoxazoles and 5-benzyl-3-phenyl-1,4,2-dioxazoles as potent firefly luciferase inhibitors” (J Med Chem, 2013)
Calls of active or inactive are those of the source. No cut-off for these calls is given here.

How the values were obtained:
[1] = molecular target: Luciferin 4-monooxygenase (Photinus pyralis) (UniProt P08659); assay: Inhibition of recombinant firefly luciferase at 1 nM after 20 mins by luminescence assay
[2] = molecular target: Luciferin 4-monooxygenase (Photinus pyralis) (UniProt P08659); assay: Inhibition of recombinant firefly luciferase at 10 uM after 20 mins by luminescence assay
[3] = molecular target: Luciferin 4-monooxygenase (Photinus pyralis, UniProt P08659); assay: Inhibition of recombinant firefly luciferase after 20 mins by luminescence assay
[4] = molecular target: Luciferin 4-monooxygenase (Photinus pyralis) (UniProt P08659); assay: Noncovalent inhibition of recombinant firefly luciferase assessed as inhibition of enzyme-compound adduct formation at 10 uM after 5 mins by SDS-PAGE based liquid scintillation counting analysis; conditions: tested as the 14C-labelled form
[5] = molecular target: Luciferin 4-monooxygenase (Photinus pyralis) (UniProt P08659); assay: Inhibition of recombinant firefly luciferase activity expressed in U87 cells at 10 uM after 2 mins; format: cell-based; conditions: U-87MG ATCC
[6] = molecular target: Luciferin 4-monooxygenase (Photinus pyralis) (UniProt P08659); assay: Inhibition of recombinant firefly luciferase activity expressed in U87 cells at 10 uM after 48 hrs; format: cell-based; conditions: U-87MG ATCC
[7] = molecular target: Luciferin 4-monooxygenase (Photinus pyralis) (UniProt P08659); assay: Noncompetitive inhibition of recombinant firefly luciferase using luciferin as substrate at 1 to 100 nM after 30 min by Michaelis-Menten plot analysis
[8] = molecular target: Luciferin 4-monooxygenase (Photinus pyralis) (UniProt P08659); assay: Noncompetitive inhibition of recombinant firefly luciferase using ATP as substrate at 1 to 100 nM after 30 mins by Michaelis-Menten plot analysis

Sequence of Luciferin 4-monooxygenase (P08659 whole entry): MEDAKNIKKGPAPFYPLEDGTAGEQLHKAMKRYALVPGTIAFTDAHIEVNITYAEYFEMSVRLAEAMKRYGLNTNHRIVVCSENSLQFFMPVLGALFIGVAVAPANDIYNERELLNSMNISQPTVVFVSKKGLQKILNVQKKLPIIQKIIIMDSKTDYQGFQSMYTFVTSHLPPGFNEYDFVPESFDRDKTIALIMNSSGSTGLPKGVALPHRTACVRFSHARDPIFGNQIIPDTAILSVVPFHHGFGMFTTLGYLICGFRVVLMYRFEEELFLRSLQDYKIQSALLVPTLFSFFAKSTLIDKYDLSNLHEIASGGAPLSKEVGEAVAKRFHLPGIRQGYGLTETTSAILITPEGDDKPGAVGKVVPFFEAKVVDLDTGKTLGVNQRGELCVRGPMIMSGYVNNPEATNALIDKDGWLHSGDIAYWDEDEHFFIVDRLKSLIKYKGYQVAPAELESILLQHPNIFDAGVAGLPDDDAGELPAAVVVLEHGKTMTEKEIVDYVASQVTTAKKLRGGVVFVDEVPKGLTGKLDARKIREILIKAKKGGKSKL
Sequence of Luciferin 4-monooxygenase (Photinus pyralis) (P08659 whole entry): as above

SMILES | inhibition [1] [%] | inhibition [2] [%] | IC50 [3] [nM] | further results
COc1ccc(C[C@H]2CC(c3ccc(Cl)cc3)=NO2)cc1 | 1 | 1.7 |  | 
Oc1ccccc1C1=NO[C@H](Cc2ccccc2)C1 | 48.1 | 98.4 | 1.95 | 
COc1ccc(C[C@@H]2CC(c3ccc(OC)cc3)=NO2)cc1 | 3.1 | 37.4 |  | pIC50 [3]: > 5
Clc1ccccc1C1=NOC(Cc2ccccc2)C1 (racemic) | 50.7 | 99.8 | 0.933 | 
COc1ccccc1C1=NO[C@@H](Cc2ccccc2)O1 | 5 | 63.3 | 4270 | 
c1ccc(C[C@@H]2CC(c3ccccc3)=NO2)cc1 | 47.1 | 99.5 | 1.58 | 
COc1ccc(C2=NO[C@@H](Cc3ccccc3)C2)cc1 | 6.4 | 68 | 2450 | 
Fc1ccccc1C1=NO[C@@H](Cc2ccccc2)C1 | 11.3 | 83 | 1020 | 
Clc1ccc(C2=NO[C@@H](Cc3ccccc3)C2)cc1 | 17.7 | 88.3 | 417 | 
COc1ccccc1C1=NO[C@H](Cc2ccccc2)O1 | 48.3 | 98.2 | 2.14 | 
COc1cccc(C2=NO[C@H](Cc3ccccc3)C2)c1 | 65.9 | 99.4 | 0.398 | 
Clc1cccc(C2=NOC(Cc3ccccc3)C2)c1 (racemic) | 26.1 | 94.8 | 15.1 | 
Fc1ccccc1C1=NOC(Cc2ccccc2)O1 (racemic) | 38.8 | 98 | 2.82 | 
COc1ccc(C2=NO[C@H](Cc3ccccc3)O2)cc1 | 56.1 | 99.5 | 0.955 | 
Oc1ccc(/C=C/c2cc(O)cc(O)c2)cc1 | 6.8 | 99.6 |  | 
Fc1ccc(C[C@H]2CC(c3ccc(Cl)cc3)=NO2)cc1 | 1.4 | 86.8 | 603 | 
COc1ccc(C2=NO[C@@H](Cc3cccc(OC)c3)C2)cc1 | 4 | 25.5 |  | pIC50 [3]: > 5
Clc1ccc(C2=NO[C@@H](Cc3cccc4ccccc34)C2)cc1 | 1.9 | 36.6 |  | pIC50 [3]: > 5
CCc1ccc(C[C@H]2CC(c3ccc(Cl)cc3)=NO2)cc1 | 2.5 | 50.2 | 8710 | 
CC(C)c1ccc(C[C@H]2CC(c3ccc(Cl)cc3)=NO2)cc1 | 1.7 | 31.9 |  | pIC50 [3]: > 5
COc1ccccc1CC1CC(c2ccc(Cl)cc2)=NO1 (racemic) | 29.8 | 91.8 | 16.2 | 
Oc1ccc(C2=NO[C@@H](Cc3ccccc3)C2)cc1 | 5.3 | 42.8 |  | pIC50 [3]: > 5

SMILES | inhibition [1] [%] | inhibition [2] [%] | IC50 [3] [nM] | further results
CC(C)c1ccc(C[C@@H]2CC(c3ccc(Cl)cc3)=NO2)cc1 | 0.4 | 0.7 |  | 
COc1ccc(C2=NO[C@@H](Cc3ccccc3OC)C2)cc1 | 6.1 | 67.1 | 2190 | 
Oc1ccc(C2=NO[C@H](Cc3ccccc3)C2)cc1 | 13.1 | 93.3 | 316 | 
c1ccc(C[C@H]2CC(c3ccccc3)=NO2)cc1 | 6.5 | 94.9 | 174 | 
COc1ccc(C2=NOC(C)(Cc3ccccc3)C2)cc1 (racemic) | 20.3 | 97.6 | 21.9 | 
Fc1ccc(C[C@@H]2CC(c3ccc(Cl)cc3)=NO2)cc1 | 53 | 99.2 | 0.871 | 
N#Cc1ccc(C2=NOC(Cc3ccccc3)C2)cc1 (racemic) |  |  |  | inhibition [4]: Active
Clc1ccc(C2=NOC(CCc3ccccc3)C2)cc1 (racemic) | 1.5 | 64.2 | 3240 | 
COc1ccc(C2=NO[C@H](Cc3ccccc3)C2)cc1 | 70.9 | 99.8 | 0.288 | inhibition [5]: Active; inhibition [6]: Active; inhibition [7]: Active; inhibition [8]: Active
COc1ccc(C2=NO[C@H](Cc3ccc(F)cc3)C2)cc1 | 26.7 | 100 | 10.5 | 
COc1ccc(C2=NO[C@@H](Cc3ccc(F)cc3)C2)cc1 | -1.9 | 41.3 |  | pIC50 [3]: > 5
CC1(Cc2ccccc2)CC(c2ccc(Cl)cc2)=NO1 (racemic) | 28.7 | 95.8 | 32.4 | 
COc1cccc(C[C@@H]2CC(c3ccc(Cl)cc3)=NO2)c1 | 20.6 | 96.7 | 17 | 
Fc1ccc(C2=NO[C@H](Cc3ccccc3)C2)cc1 | 76.8 | 99.5 | 0.309 | 
N#Cc1ccc(C2=NO[C@H](Cc3ccccc3)C2)cc1 | 53.6 | 99.2 | 0.891 | 
Oc1ccccc1C1=NO[C@@H](Cc2ccccc2)C1 | 8.9 | 79.7 | 1120 | 
COc1ccc(C2=NO[C@@H](CCc3ccccc3)C2)cc1 | 2.5 | 6.8 |  | 
Fc1ccccc1C1=NO[C@H](Cc2ccccc2)C1 | 57.9 | 99.3 | 0.955 | 
COc1ccc(CC2CC(c3ccc(Cl)cc3)=NO2)cc1OC (racemic) | 0.9 | 2.2 |  | 
Clc1ccc(C2=NO[C@H](Cc3cccc4ccccc34)C2)cc1 | 2 | 40.9 |  | pIC50 [3]: > 5
Fc1ccc(C2=NO[C@@H](Cc3ccccc3)C2)cc1 | 7.7 | 85.6 | 741 | 
c1ccc(C[C@@H]2CC(c3cccc4ccccc34)=NO2)cc1 | 3 | 62.2 | 2510 | 

SMILES | inhibition [1] [%] | inhibition [2] [%] | IC50 [3] [nM] | further results
COc1ccc(C[C@@H]2CC(c3ccc(Cl)cc3)=NO2)cc1 | 3.8 | 30.4 |  | pIC50 [3]: > 5
COc1ccc(C2=NO[C@@H](Cc3ccccc3)O2)cc1 | 42 | 98.6 | 5.25 | 
CCc1ccc(C[C@@H]2CC(c3ccc(Cl)cc3)=NO2)cc1 | 6.3 | 29.4 |  | pIC50 [3]: > 5
COc1cccc(C[C@H]2CC(c3ccc(Cl)cc3)=NO2)c1 | 1.1 | 33.6 |  | pIC50 [3]: > 5
c1ccc(C[C@H]2CC(c3cccc4ccccc34)=NO2)cc1 | 5.5 | 41.5 |  | pIC50 [3]: > 5
Oc1cccc(C2=NO[C@H](Cc3ccccc3)C2)c1 | 47 | 99.7 | 0.832 | 
COc1ccccc1C1=NO[C@H](Cc2ccccc2)C1 | 51.7 | 99.4 | 0.912 | 
c1ccc(C[C@@H]2CC(c3ccc4ccccc4c3)=NO2)cc1 | 13.4 | 97 | 87.1 | 
COc1cccc(C2=NO[C@@H](Cc3ccccc3)C2)c1 | 9.6 | 75.3 | 1950 | 
O=[N+]([O-])c1ccc(C2=NOC(Cc3ccccc3)C2)cc1 (racemic) | 63.9 | 96.4 | 0.741 | 
Oc1cccc(C2=NO[C@@H](Cc3ccccc3)C2)c1 | 6.7 | 71.5 | 2190 | 
COc1ccc(C2=NO[C@H](Cc3ccccc3OC)C2)cc1 | 46.5 | 98.8 | 1.82 | 
COc1ccc(C[C@H]2CC(c3ccc(OC)cc3)=NO2)cc1 | 3.3 | 3.1 |  | 
Fc1cccc(C2=NO[C@H](Cc3ccccc3)C2)c1 | 61.6 | 98.2 | 0.955 | 
COc1ccc(C2=NO[C@H](CCc3ccccc3)C2)cc1 | 30.5 | 96 | 13.8 | 
COc1ccccc1C1=NO[C@@H](Cc2ccccc2)C1 | 5.2 | 57.5 | 6920 | 
N#Cc1ccc(C2=NO[C@@H](Cc3ccccc3)C2)cc1 | 14.7 | 88.3 | 331 | 
Fc1cccc(C2=NO[C@@H](Cc3ccccc3)C2)c1 | -3.7 | 84.1 | 1000 | 
Clc1ccccc1C1=NOC(Cc2ccccc2)O1 (racemic) | 68.5 | 99.6 | 0.525 | 
COc1ccc(C2=NO[C@H](Cc3cccc(OC)c3)C2)cc1 | 43.8 | 98.7 | 1.17 | 
c1ccc(C[C@H]2CC(c3ccc4ccccc4c3)=NO2)cc1 | 4.9 | 31.5 |  | pIC50 [3]: > 5
